{"source": "patent US20080275015A1", "about": "“Formulation and Method for Treating Interstitial Cystitis and Related Bladder Conditions” (priority 2007, published 2008)", "origin": "cited, not measured here", "conditions": "oral prescription for interstitial cystitis; standard dosing 100 mg three times daily", "data": [{"substance": "pentosan polysulfate sodium [Elmiron]", "values": [{"measurement": "cases in which treatment has been shown to be effective", "value": 30, "unit": "%"}]}]}
